Consider two molecules from ChEMBL document CHEMBL5154820 (Eur J Med Chem, 2022).

The target of data set [1] is Tubulin beta (Homo sapiens) (UniProt P68371+Q9H4B7+Q13509+P04350+Q3ZCM7+P07437+Q13885+Q9BVA1+Q9BUF5+A6NNZ2). Put plainly: Binding affinity to beta-tubulin colchicine binding site in human HeLa cells assessed as decrease of adduct formation by measuring gray value measured at 1 uM incubated for 2 hrs followed by addition of EBI measured after 1.5 hrs by EBI competition based Western blotting analysis. Type of data set: cell-based. Conditions: time 3.5 hrs.

The test system of data set [2] is HeLa. Kind of data set: Antitumor activity against human HeLa cells xenografted in BABL/c mouse assessed as tumor growth inhibition at 30 mg/kg, ip administered daily for 21 days relative to control. The format is functional. Conditions: 504 h, time 21 day, read-out: TGI. In general terms: A xenograft is tissue or cells of one species grown in another, often human tumour cells in immunodeficient mice.

Data set [3] is described as follows: Acute toxicity against ICR mouse assessed as regeneration of renal tubule in kidney at 1000 mg/kg, ip measured after 14 days by H and E staining method. Type of data set: organism-based. Conditions: in vivo, 336 h, time 14 day.
Data set [4] can be described thus: Toxicity against BABL/c mouse assessed as morphological changes in kidney at 30 to 60 mg/kg, ip administered daily for 21 days by H and E staining method. Conditions: in vivo, 504 h, dose 30-60 mg/kg, time 21 day. The format is organism-based.
A short description of data set [5]: Toxicity against BABL/c mouse assessed as glomerular crescent hyperplasia in kidney at 60 mg/kg, ip administered daily for 21 days by H and E staining method. Type of data set: organism-based. Conditions: in vivo, 504 h, time 21 day.
Data set [6] relates to HeLa. Kind of data set: Induction of cell cycle arrest in human HeLa cells assessed as >4N cells at 0.1 uM measured after 24 hrs by propidium iodide staining based flow cytometric analysis analysis ( Rvb = 8.84%). Type of data set: functional. For orientation: Flow cytometry measures light scatter and fluorescence of single cells or particles in a stream.
Data set [7] concerns HeLa. Put plainly: Induction of cell cycle arrest in human HeLa cells assessed as 2N cells at 0.2 uM measured after 24 hrs by propidium iodide staining based flow cytometric analysis analysis ( Rvb = 47.4%). Type of data set: functional.
The subject of data set [8] is HeLa. Put plainly: Induction of apoptosis in human HeLa cells assessed as early apoptotic cells at 0.4 uM measured after 24 hrs by Annexin V-FITC/7-AAD staining based flow cytometric analysis (reference value: 20.8%). The format is functional.
The nature of data set [9]: Toxicity against BABL/c mouse assessed as morphological changes in spleen at 30 mg/kg, ip administered daily for 21 days followed by addition of 3 mg/kg DDP for every 2 days by H and E staining method. Conditions: in vivo, 504 h, time 21 day. Type of data set: organism-based.
A short description of data set [10]: Nephrotoxicity in BABL/c mouse assessed as increased urea nitrogen level at 60 mg/kg, ip administered daily for 21 days relative to vehicle. To be noted: in vivo, 504 h, time 21 day. Type of data set: toxicity, organism-based.
Data set [11] in a line: Toxicity against BABL/c mouse assessed as morphological changes in lung at 30 mg/kg, ip administered daily for 21 days followed by addition of 3 mg/kg DDP for every 2 days by H and E staining method. Conditions: in vivo, 504 h, time 21 day. The format is organism-based.
Data set [12] in a line: Nephrotoxicity in BABL/c mouse assessed as increased creatinine level at 30 mg/kg, ip administered daily for 21 days followed by addition of 3 mg/kg DDP for every 2 days relative to vehicle. The format is toxicity, organism-based. To be noted: in vivo, 504 h, time 21 day.
The nature of data set [13]: Acute toxicity against ICR mouse assessed as morphological changes in lung at 1000 mg/kg, ip measured after 14 days by H and E staining method. To be noted: in vivo, 336 h, time 14 day. The format is organism-based.
In data set [14] the test system is HeLa. Put plainly: Antitumour activity against human HeLa cells xenografted in BABL/c mouse assessed as reduction in tumor weight at 30 mg/kg, ip administered daily for 21 days followed by addition of 3 mg/kg DDP for every 2 days ( Rvb = 3.36 g). Type of data set: functional. Conditions: time 21 day, 504 h.
Data set [15] concerns SiHa. Put plainly: Potency index, ratio of cisplatin IC50 to test compound IC50 for cytotoxicity against human DDP resistant SiHa cells. Type of data set: functional.
The nature of data set [16]: Nephrotoxicity in BABL/c mouse assessed as increased uric acid level at 30 mg/kg, ip administered daily for 21 days relative to vehicle. The format is toxicity, organism-based. Conditions: in vivo, 504 h, time 21 day.
Data set [17] concerns HeLa. Put plainly: Antitumor activity against human HeLa cells xenografted in BABL/c mouse assessed assessed as reduction in tumor volume at 60 mg/kg, ip administered daily for 21 days and measured every 3 day ( Rvb = 2336 mm3). To be noted: time 21 day. The format is functional.
The nature of data set [18]: Toxicity against BABL/c mouse assessed as morphological changes in liver at 30 to 60 mg/kg, ip administered daily for 21 days by H and E staining method. The format is organism-based. To be noted: in vivo, 504 h, dose 30-60 mg/kg, time 21 day.
The test system of data set [19] is HeLa. Kind of data set: Induction of cell cycle arrest in human HeLa cells assessed as < 2N cells at 3 nM measured after 24 hrs by propidium iodide staining based flow cytometric analysis analysis ( Rvb = 9.32%). Type of data set: functional.
The test system of data set [20] is HeLa. Kind of data set: Induction of apoptosis in human HeLa cells assessed as necrotic cells at 3 nM measured after 24 hrs by Annexin V-FITC/7-AAD staining based flow cytometric analysis (reference value: 0.45%). Type of data set: functional.
The subject of data set [21] is HeLa. Kind of data set: Induction of cell cycle arrest in human HeLa cells assessed as 2N cells at 1.5 nM measured after 24 hrs by propidium iodide staining based flow cytometric analysis analysis ( Rvb = 41.7%). The format is functional.
In data set [22] the test system is HeLa. Put plainly: Inhibition of colony formation in human HeLa cells at 6 nM and treated for every 48 hrs with fresh medium measured after 14 days by crystal violet staining method. The format is functional. Also on record: scale not given: the % may be the effect or the level left. Conditions: time 14 day.
Data set [23] deals with HeLa. Kind of data set: Induction of cell cycle arrest in human HeLa cells assessed as 2N cells at 3 nM measured after 24 hrs by propidium iodide staining based flow cytometric analysis analysis ( Rvb = 41.7%). The format is functional.
The test system of data set [24] is HeLa. Put plainly: Induction of cell cycle arrest in human HeLa cells assessed as < 2N cells at 1.5 nM measured after 24 hrs by propidium iodide staining based flow cytometric analysis analysis ( Rvb = 9.32%). Type of data set: functional.
The test system of data set [25] is HeLa. Kind of data set: Induction of apoptosis in human HeLa cells assessed as viable cells at 6 nM measured after 24 hrs by Annexin V-FITC/7-AAD staining based flow cytometric analysis (reference value: 75.5%). The format is functional. To be noted: read-out: Activity.
In data set [26] the test system is HeLa. Kind of data set: Induction of apoptosis in human HeLa cells assessed as viable cells at 3 nM measured after 24 hrs by Annexin V-FITC/7-AAD staining based flow cytometric analysis (reference value: 75.5%). Type of data set: functional. To be noted: read-out: Activity.
In data set [27] the test system is HeLa. Kind of data set: Induction of cell cycle arrest in human HeLa cells assessed as 4N cells at 3 nM measured after 24 hrs by propidium iodide staining based flow cytometric analysis analysis ( Rvb = 17.1%). Type of data set: functional.
The test system of data set [28] is HeLa. Kind of data set: Induction of cell cycle arrest in human HeLa cells assessed as >4N cells at 1.5 nM measured after 24 hrs by propidium iodide staining based flow cytometric analysis analysis relative to control. Type of data set: functional.
Data set [29] relates to HeLa. Put plainly: Induction of cell cycle arrest in human HeLa cells assessed as >4N cells at 6 nM measured after 24 hrs by propidium iodide staining based flow cytometric analysis analysis relative to control. The format is functional.
The test system of data set [30] is HeLa. Put plainly: Induction of cell cycle arrest in human HeLa cells assessed as < 2N cells at 6 nM measured after 24 hrs by propidium iodide staining based flow cytometric analysis analysis ( Rvb = 9.32%). The format is functional.
The test system of data set [31] is HeLa. Kind of data set: Induction of cell cycle arrest in human HeLa cells assessed as accumulation of cells at G2/M phase at 6 nM after 24 hrs by propidium iodide staining based flow cytometric analysis (reference value: 17.1%). Type of data set: functional.
Data set [32] concerns HeLa. Kind of data set: Antimigratory activity against human HeLa cells at 1.5 nM measured after 24 hrs by scratch wound healing based fluorescence inverted microscopic analysis. The format is functional.

Consider `CCOc1ccc(-c2cncnc2-c2cc(OC)c(OC)c(OC)c2)cc1Cl`, for which the Activity in [1] is 0.53; in data set [3] it was “Non-Toxic”; in data set [4] it was “Non-Toxic”; in data set [5], “Toxic”; in [6] it was 21.6%; in [7], 0.82%. Moreover, the Activity in data set [8] is recorded as 84.4%; in [9], “Non-Toxic”; in data set [10] it was 1.3%; in data set [11], “Non-Toxic”; in data set [12], 40%; in data set [13], “Non-Toxic”. Further, the Activity in data set [14] is 2.18 g; in data set [16], 21%; in [17], 1083 mm3; in data set [18] it was “Non-Toxic”. For the same molecule, in data set [2], the inhibition in vivo at 30 mg/kg is 35%. Besides, the “Ratio IC50” value in [15] worked out at 2.7.
`COc1ccc(/C=C\c2cc(OC)c(OC)c(OC)c2)cc1O` [COMBRETASTATIN A4]: the Activity in [19] is recorded as 7.77%; in data set [20], 0.64%; in data set [21], 43.1%; in [22], 100%; in [23], 24.9%; in data set [24], 4.37%. The Activity is recorded as 28.2% in [27]; 17.9% in data set [28]; 6.35% in data set [29]; 16.5% in [30]; 35.3% in data set [31]; 25% in data set [32]. Also, the viability at 0.006 µM in [25] stood at 19.2%. Besides, in [26], the viability at 0.003 µM stood at 44.7%.
